Where two headings read alike, the source gives them in different places.
Key:
[1] = tested on: metrazol-induced convulsions; test: Suppression of Metrazol-Induced Convulsions in Adult Male Mice; type: in vivo; settings: Mus musculus, ip
Protocol: Assay to Determine the Suppression of Metrazol-Induced Convulsions in Adult Male Mice
Male CD1 mice, were fasted at least 16 hours, were divided into equal groups and test compounds or vehicle were administered parenterally. Water was not withheld except during the period of observations. […] Metrazol was dissolved in 0.9% sodium chloride solution, and its dose volume was 10 ml/kg. Animals were housed individually for observation of clonic convulsions, tonic convulsions and death for a period of 30 min. […] The biological assay was considered to be valid if the effects of a known anticonvulsant (positive control) were detected, within the same experiment. Activity was reported as percent reduction of clonic convulsions from the vehicle group.

[2] = molecular target: benzodiazepine site of the GABA-A receptor; test: Benzodiazepine Receptor Binding Assay (inhibition of 3H-flunitrazepam binding); settings: read-out: GABAA Receptor Binding IC50
[3] = tested on: Anxiety in the Adult Male Rat; test: Suppression of Anxiety in the Adult Male Rat (rat conflict test); type: in vivo, rats; settings: for minimal effective dose: Rattus norvegicus
Protocol: Assay to Measure the Suppression of Anxiety in the Adult Male Rat
Male rats were deprived of water for 48 hours and were deprived of food for 24 hours prior to testing. After the first 24 hours of water deprivation, they were placed in the conflict chamber for a training period; wherein, they were allowed 200 unpunished licks from a bottle containing tap water. The experiment was run the next day. At the expected time of peak activity, the animals were placed in the chamber and allowed access to tap water. […] Their first lick initiates a 3-min test session. Subsequently, every 20th lick was punished by a 0.2-s shock delivered via the stainless-steel drinking-tube.
The Wilcoxon rank-sum test (Mann-Whitney U-test) was used to test for an increase (p<0.05, 1-tailed) in the median number of shocks in drug-treated groups, compared to a concurrently run vehicle-treated group. The biological assay is considered to be valid if the effects of a known anxiolytic (positive control) are detected, within the same experiment.

[4] = tested on: metrazol-induced convulsions; test: Suppression of Metrazol-Induced Convulsions in Adult Male Mice; type: in vivo; settings: for ED50: Mus musculus, po
[5] = block of clonic convulsions, male CD1 mice, >30 = active dose not determined
[6] = inhibition of 3H-flunitrazepam (ca. 3 nM) binding to membranes, 25°C, over 10,000 = not active
[7] = ip, minimum effective dose, increase in shocks tolerated, >10 = active dose not determined, read-out: Rat Conflict (MED, mg/kg) ip
[8] = po, minimum effective dose, increase in shocks tolerated, >10 = active dose not determined, read-out: Rat Conflict (MED, mg/kg) po
[9] = po, rat, po, read-out: Rat Conflict (MED, mg/kg) po
[10] = ip, rat, ip, read-out: Rat Conflict (MED, mg/kg) ip

| SMILES | ED50 ([1]; mouse) [mg/kg] | IC50 [2] [nM] | minimal effective dose [3, 9] [mg/kg] | ED50 ([4]; mouse) [mg/kg] | other results |
| --- | --- | --- | --- | --- | --- |
| CN1CCCC(N2C3=C(C(=O)Nc4ccccc4F)C(=O)CCN3c3ccc(F)cc32)C1 (stereo not shown) [Compound 87] |  |  |  |  | ED50 [1, 5]: 3 mg/kg; IC50 [2, 6]: 30.7 nM; minimal effective dose [3, 7]: > 10 mg/kg; minimal effective dose [3, 8]: > 10 mg/kg; ED50 [4, 5]: 10 mg/kg |
| O=C1CCN2C(=C1C(=O)Nc1ccccc1F)N(CCN1CCOCC1)c1cc(F)ccc12 [Compound 88] |  |  |  |  | ED50 [1, 5]: 0.1 mg/kg; IC50 [2, 6]: 3.67 nM; minimal effective dose [3, 7]: > 10 mg/kg; minimal effective dose [3, 8]: 10 mg/kg; ED50 [4, 5]: 7 mg/kg |
| N#CCN1C2=C(C(=O)Nc3ccccc3F)C(=O)CCN2c2ccc(F)cc21 [Compound 89] |  |  |  |  | ED50 [1, 5]: < 1 mg/kg; IC50 [2, 6]: 1.84 nM; minimal effective dose [3, 8]: 1 mg/kg; ED50 [4, 5]: 0.5 mg/kg |
| COc1cccc(NC(=O)C2=C3N(CC#N)c4ccccc4N3CCC2=O)c1 [Compound 90] |  |  |  |  | ED50 [1, 5]: < 1 mg/kg; IC50 [2, 6]: 6.04 nM; minimal effective dose [3, 8]: 1 mg/kg; ED50 [4, 5]: 0.5 mg/kg |
| CCOCN1C2=C(C(=O)Nc3ccc(OC(=O)OC)cc3F)C(=O)CCN2c2ccc(F)cc21 [Compound 100] | ≥ 1 | 4.35 | ~1 | 3 to 30 |  |
| CCOCN1C2=C(C(=O)Nc3ccc(C)s3)C(=O)CCN2c2ccccc21 [Compound 101] | < 1 | 0.95 | 3 | < 3 |  |
| COCCN1C2=C(C(=O)Nc3nccs3)C(=O)CCN2c2ccccc21 [Compound 102] | ~1 | 8.82 | 10 | ~6 |  |
| CCOCN1C2=C(C(=O)Nc3ccccc3F)C(=O)CCN2c2ccc(F)c(F)c21 [Compound 103] | < 1 | 0.55 | 1 | < 3 |  |
| CCOCN1C2=C(C(=O)Nc3ccc(OC)cc3)C(=O)CCN2c2ccc(F)cc21 [Compound 104] | < 1 | 1.04 | 0.1 | < 3 |  |
| CCOCN1C2=C(C(=O)Nc3cccs3)C(=O)CCN2c2ccccc21 [Compound 105] | < 1 | 0.84 | 10 | < 3 |  |
| COCCN1C2=C(C(=O)Nc3ccc(OC)cc3)C(=O)CCN2c2ccc(F)cc21 [Compound 106] | < 1 | 4.47 | 1 | 0.3 |  |
| COCCN1C2=C(C(=O)Nc3ccccc3F)C(=O)CCN2c2c(O)cccc21 [Compound 108] | > 1 | 10.4 | > 10 | ≥ 30 |  |
| COCCN1C2=C(C(=O)NC3CCCCC3)C(=O)CCN2c2ccc(F)cc21 [Compound 110] | ≥ 1 | 19.1 | 10 | ≥ 30 |  |
| CCOCN1C2=C(C(=O)NC3CC3)C(=O)CCN2c2ccc(F)cc21 [Compound 111] | > 1 | 1.9 | > 10 | > 30 |  |
| COC(=O)OCCN1C2=C(C(=O)Nc3ccccc3F)C(=O)CCN2c2ccc(F)cc21 [Compound 114, 7-Fluoro-1,2-dihydro-5-[2-(methoxycarbonyloxy)ethyl]-3-oxo-N-(2-fluorophenyl)pyrido[1,2-a]benzimidazole-4-carboxamide] | < 1 | 0.3 | 3 | ≤ 3 |  |
| CCOCN1C2=C(C(=O)Nc3cc4ccccc4s3)C(=O)CCN2c2ccccc21 [Compound 116] | > 1 | 100 | > 10 | > 30 |  |
| COCCN1C2=C(C(=O)NC3CC3)C(=O)CCN2c2ccc(F)cc21 [Compound 118] | < 1 | 3.68 | 10 | ~3 |  |
| CCOCN1C2=C(C(=O)Nc3ccc(S(C)(=O)=O)s3)C(=O)CCN2c2ccc(F)cc21 [Compound 120] | > 1 | 35.1 | > 10 | ~3 |  |
| CCOCCN1C2=C(C(=O)Nc3ccc(S(C)(=O)=O)s3)C(=O)CCN2c2ccc(F)cc21 [Compound 121] | > 1 | 84 | > 10 | > 30 |  |
| CCOCN1C2=C(C(=O)Nc3ccc(F)cc3F)C(=O)CCN2c2ccc(F)cc21 [Compound 123] | < 1 | 1.19 | 0.1 | < 3 | minimal effective dose [3, 10]: ≤ 0.1 mg/kg |

| SMILES | ED50 ([1]; mouse) [mg/kg] | IC50 [2] [nM] | minimal effective dose [3, 9] [mg/kg] | ED50 ([4]; mouse) [mg/kg] | other results |
| --- | --- | --- | --- | --- | --- |
| CCOCN1C2=C(C(=O)Nc3ccsc3)C(=O)CCN2c2ccc(F)cc21 [Compound 124] | < 1 | 0.98 | ~0.3 | ~0.2 |  |
| CCOCCN1C2=C(C(=O)Nc3sccc3Cl)C(=O)CCN2c2ccc(F)cc21 [Compound 125] | < 1 | 0.89 | > 10 | > 30 |  |
| CCOCCN1C2=C(C(=O)Nc3cccs3)C(=O)CCN2c2ccc(F)cc21 [Compound 126] | < 1 | 0.73 | 0.1 | ~0.6 |  |
| CCOCN1C2=C(C(=O)Nc3c(F)cccc3F)C(=O)CCN2c2c1ccc(F)c2F [Compound 127] | ~1 | 585 | > 10 | > 30 |  |
| CCOCN1C2=C(C(=O)Nc3cccs3)C(=O)CCN2c2ccc(F)cc21 [Compound 129] | < 1 | 1.05 | 3 | ~0.2 |  |
| CCOCCN1C2=C(C(=O)Nc3ccnc(F)c3)C(=O)CCN2c2ccc(F)cc21 [Compound 130] | < 1 | 2.27 | 1 | ~0.8 |  |
| CCOCCN1C2=C(C(=O)Nc3ccc(C)s3)C(=O)CCN2c2ccc(F)cc21 [Compound 131] | < 1 | 1.03 | ~1 | ~0.6 |  |
| CCOCN1C2=C(C(=O)Nc3ccc(Cl)s3)C(=O)CCN2c2ccc(F)cc21 [Compound 134] | < 1 | 1.81 | > 10 | 2 |  |
| COCCN1C2=C(C(=O)Nc3ccc(F)cc3F)C(=O)CCN2c2ccc(F)cc21 [Compound 136] | < 1 | 5.55 | 0.3 | 0.3 |  |
| CCOCCN1C2=C(C(=O)Nc3ccc(F)cc3F)C(=O)CCN2c2ccc(F)cc21 [Compound 137] | < 1 | 2.4 | 1 | 0.15 | minimal effective dose [3, 10]: 1 mg/kg |
| COCCN1C2=C(C(=O)Nc3sccc3Cl)C(=O)CCN2c2ccc(F)cc21 [Compound 138] | < 1 | 1.34 | > 10 | 30 |  |
| COCCN1C2=C(C(=O)Nc3cccs3)C(=O)CCN2c2ccc(F)cc21 [Compound 139] | < 1 | 1.79 | ~1 | ~0.2 |  |
| COCCN1C2=C(C(=O)Nc3nccs3)C(=O)CCN2c2ccc(F)cc21 [Compound 140] | < 1 | 3.97 |  |  | Rat Conflict (MED, mg/kg) po ([3]; rat, po): >10 mg/kg; Mouse Metrazol (ED50, mg/kg) po ([4]; mouse): 0.3 mg/kg |
| CCOCCN1C2=C(C(=O)Nc3nccs3)C(=O)CCN2c2ccc(F)cc21 [Compound 141] | < 1 | 6.78 | > 3 | ~6 |  |
| COCCN1C2=C(C(=O)Nc3ccc(C)s3)C(=O)CCN2c2ccccc21 [Compound 142] | < 1 | 3.17 | ~1 | 0.7 |  |
| COCCN1C2=C(C(=O)Nc3ccc(C)s3)C(=O)CCN2c2ccc(F)cc21 [Compound 143] | < 1 | 1.35 | < 10 | 0.7 |  |
| COCCN1C2=C(C(=O)Nc3ccc(Br)s3)C(=O)CCN2c2ccc(F)cc21 [Compound 144] | < 1 | 5.26 | > 10 | ~10 |  |
| COCCN1C2=C(C(=O)Nc3ccc(Cl)s3)C(=O)CCN2c2ccc(F)cc21 [Compound 145] | < 1 | 2.05 | > 10 | ~30 |  |
| COCCN1C2=C(C(=O)Nc3ccc(Cl)s3)C(=O)CCN2c2ccccc21 [Compound 146] | < 1 | 2.09 | > 10 | > 30 |  |
